Patent publication US9243002B2, “Tetracyclic heterocycle compounds and methods of use thereof for the treatment of hepatitis C” (priority 2013, dated 2016)
Read-outs that look alike come from different tables or passages of the source.

Columns and labels:
HCV genotype 1a replicon = experiment: HCV replicon assay, genotype 1a (cell ELISA for NS3/4A); type: cell-based, hepatitis C virus
Experimental: (§1) Measurement of inhibition by compounds was performed using the HCV replicon system. Several different replicons encoding different HCV genotypes or mutations were used. In addition, potency measurements were made using different formats of the replicon assay, including different ways of measurements and different plating formats. See Jan M. Vrolijk et al., A replicons-based bioassay for the measurement of interferons in patients with chronic hepatitis C, 110 J. VIROLOGICAL METHODS 201 (2003); Steven S. Carroll et al., Inhibition of Hepatitis C Virus RNA Replication by 2′-Modified Nucleoside Analogs, 278 (14) J. BIOLOGICAL CHEMISTRY 11979 (2003). However, the underlying principles are common to all of these determinations, and are outlined below.
(§2) Stable neomycin phosphotransferase encoding replicons-harboring cell lines were used, so all cell lines were maintained under G418 selection prior to the assay. Potency was deteremined using a cell ELISA assay with an antibody to the replicons encoded NS3/4a protease. See Caterina Trozzi et al., In Vitro Selection and Characterization of Hepatitis C Virus Serine Protease Variants Resistant to an Active-Site Peptide Inhibitor, 77 (6) J. Virol. 3669 (2003). To initiate an assay, replicon cells were plated in the presence of a dilution series of test compound in the absence of G418. Typically, the assays were performed in a 96-well plate formate for manual operation, or a 384-well plate format for automated assay. Replicon cells and compound were incubated for 96 hours. At the end of the assay, cells were washed free of media and compound, and the cells were then lysed. RNA was quantified indirectly through detection of replicon-encoded NS3/4A protein levels, through an ELISA-based assay with an antibody specific for NS3/4A. IC50 determinations were calculated as a percentage of a DMSO control by fitting the data to a four-parameter fit function and the data obtained for genotypes 1a and 1b using this method is provided in the table below.

HCV genotype 1b replicon = experiment: HCV replicon assay, genotype 1b (cell ELISA for NS3/4A); type: cell-based, hepatitis C virus
Experimental: as §1, §2

[1] = read-out: 1a IC50, genotype 1a replicon cells, 96 hours incubation, NS3/4A ELISA
[2] = Hepatitis C virus, 96 h, read-out: 1b IC50 (nM), genotype 1b replicon cells, 96 hours incubation, NS3/4A ELISA
[3] = read-out: 1b IC50, genotype 1b replicon cells, 96 hours incubation, NS3/4A ELISA
[4] = genotype 1a replicon cells, 96 hours incubation, NS3/4A ELISA, read-out: 1a IC50
[5] = genotype 1b replicon cells, 96 hours incubation, NS3/4A ELISA, read-out: 1b IC50
[6] = Hepatitis C virus, 96 h, read-out: 1a IC50 (nM), genotype 1a replicon cells, 96 hours incubation, NS3/4A ELISA

SMILES	IC50 (HCV genotype 1b replicon; [2]) [nM]	IC50 (HCV genotype 1a replicon; [6]) [nM]	further results
CNC(=O)c1c(-c2ccc(F)cc2)oc2cc(N(C)S(C)(=O)=O)c(-c3cc4c(cn3)CC(C)n3c-4cc4c(F)cccc43)cc12 (single isomer, unassigned) [Example 41, (R or S)-5-(11-fluoro-6-methyl-5,6-dihydroindolo[2,1-a][2,6]naphthyridin-2-yl)-2-(4-fluorophenyl)-N-methyl-6-(N-methylmethylsulfonamido)benzofuran-3-carboxamide]	6.33	–	IC50 (HCV genotype 1a replicon; [1]): 19.3 nM
CNC(=O)c1c(-c2ccc(F)cc2)oc2cc(N(C)S(C)(=O)=O)c(-c3cc4c(cn3)CC(C)n3c-4cc4c(F)cccc43)cc12 (single isomer, unassigned) [Example 42, (S or R)-5-(11-fluoro-6-methyl-5,6-dihydroindolo[2,1-a][2,6]naphthyridin-2-yl)-2-(4-fluorophenyl)-N-methyl-6-(N-methylmethylsulfonamido)benzofuran-3-carboxamide]	–	–	IC50 (HCV genotype 1a replicon; [1]): 3.1 nM; IC50 (HCV genotype 1b replicon; [3]): 5.47 nM
CNC(=O)c1c(-c2ccc(F)cc2F)oc2cc(N(C)S(C)(=O)=O)c(-c3ccc4c(n3)-c3cc5c(F)cccc5n3C(CO)C4)cc12 (single isomer, unassigned) [Example 50, (R or S)-2-(2,4-difluorophenyl)-5-(1.1-fluoro-6-(hydroxymethyl)-5,6-dihydroindolo[1,2-h][1,7]naphthyridin-2-yl)-N-methyl-6-(N-methylmethylsulfonamido)benzofuran-3-carboxamide]	–	–	IC50 (HCV genotype 1a replicon; [4]): 1.15 nM; IC50 (HCV genotype 1b replicon; [5]): 3.36 nM
CNC(=O)c1c(-c2ccc(F)cc2F)oc2cc(N(C)S(C)(=O)=O)c(-c3ccc4c(n3)-c3cc5c(F)cccc5n3C(CO)C4)cc12 (single isomer, unassigned) [Example 51, (S or R)-2-(2,4-difluorophenyl)-5-(11-fluoro-6-(hydroxymethyl)-5,6-dihydroindolo[1,2-h][1,7]naphthyridin-2-yl)-N-methyl-6-(N-methylmethylsulfonamido)benzofuran-3-carboxamide]	3.42	4.49	–
CNC(=O)c1c(-c2ccc(F)cc2)oc2cc(N(C)S(C)(=O)=O)c(-c3ccc4c(n3)-c3cc5c(F)cccc5n3C(CS(C)(=O)=O)C4)cc12 (single isomer, unassigned) [Example 56, (R or S)-5-(11-fluoro-6-((methylsulfonyl)methyl)-5,6-dihydroindolo[1,2-h][1,7]naphthyridin-2-yl)-2-(4-fluorophenyl)-N-methyl-6-(N-methylmethylsulfonamido)benzofuran-3-carboxamide]	2	–	IC50 (HCV genotype 1a replicon; [1]): 3.4 nM
CNC(=O)c1c(-c2ccc(F)cc2)oc2cc(N(C)S(C)(=O)=O)c(-c3ccc4c(n3)-c3cc5c(F)cccc5n3C(CS(C)(=O)=O)C4)cc12 (single isomer, unassigned) [Example 57, (S or R)-5-(11-fluoro-6-((methylsulfonyl)methyl)-5,6-dihydroindolo[1,2-h][1,7]naphthyridin-2-yl)-2-(4-fluorophenyl)-N-methyl-6-(N-methylmethylsulfonamido)benzofuran-3-carboxamide]	–	–	IC50 (HCV genotype 1a replicon; [1]): 8.16 nM; IC50 (HCV genotype 1b replicon; [3]): 3.39 nM
CNC(=O)c1c(-c2ccc(F)cc2)oc2cc(N(C)S(C)(=O)=O)c(-c3cc4c(cn3)C(C)Cn3c-4cc4c(F)cccc43)cc12 (single isomer, unassigned) [Example 60, (R or S)-5-(11-fluoro-5-methyl-5,6-dihydroindolo[2,1-a][2,6]naphthyridin-2-yl)-2-(4-fluorophenyl)-N-methyl-6-(N-methylmethylsulfonamido)benzofuran-3-carboxamide]	10.1	–	IC50 (HCV genotype 1a replicon; [1]): 5 nM
CNC(=O)c1c(-c2ccc(F)cc2)oc2cc(N(C)S(C)(=O)=O)c(-c3cc4c(cn3)C(C)Cn3c-4cc4c(F)cccc43)cc12 (single isomer, unassigned) [Example 61, (S or R)-5-(11-fluoro-5-methyl-5,6-dihydroindolo[2,1-a][2,6]naphthyridin-2-yl)-2-(4-fluorophenyl)-N-methyl-6-(N-methylmethylsulfonamido)benzofuran-3-carboxamide]	–	–	IC50 (HCV genotype 1a replicon; [1]): 2.27 nM; IC50 (HCV genotype 1b replicon; [3]): 7.8 nM
CNC(=O)c1c(-c2ccc(C(F)(F)F)cc2)oc2cc(N(C)S(C)(=O)=O)c(-c3ccc4c(n3)-c3cc5c(F)cccc5n3CC4)cc12 [Example 1, 5-(11-fluoro-5,6-dihydroindolo[1,2-h][1,7]naphthyridin-2-yl)-N-methyl-6-(N-methylmethylsulfonamido)-2-(4-(trifluoromethyl)phenyl)benzofuran-3-carboxamide]	–	–	IC50 (HCV genotype 1a replicon; [4]): 3.78 nM; IC50 (HCV genotype 1b replicon; [5]): 4.67 nM
CNC(=O)c1c(-c2ccc(OC(F)F)nc2)oc2cc(N(C)S(C)(=O)=O)c(-c3ccc4c(n3)-c3cc5c(F)cccc5n3CC4)cc12 [Example 2]	3.9	2.09	–
CNC(=O)c1c(-c2ccc(C(F)F)nc2)oc2cc(N(C)S(C)(=O)=O)c(-c3ccc4c(n3)-c3cc5c(F)cccc5n3CC4)cc12 [Example 3]	6.69	7.94	–
CNC(=O)c1c(-c2ccc(OCC(F)(F)F)nc2)oc2cc(N(C)S(C)(=O)=O)c(-c3ccc4c(n3)-c3cc5c(F)cccc5n3CC4)cc12 [Example 4]	7.3	6.99	–
CNC(=O)c1c(-c2ccc(OC3CC3)nc2)oc2cc(N(C)S(C)(=O)=O)c(-c3ccc4c(n3)-c3cc5c(F)cccc5n3CC4)cc12 [Example 5]	2.3	3.86	–
CNC(=O)c1c(-c2ccc(C3CC3)nc2)oc2cc(N(C)S(C)(=O)=O)c(-c3ccc4c(n3)-c3cc5c(F)cccc5n3CC4)cc12 [Example 6]	10.2	16.8	–
CNC(=O)c1c(-c2ccc(C)nc2)oc2cc(N(C)S(C)(=O)=O)c(-c3ccc4c(n3)-c3cc5c(F)cccc5n3CC4)cc12 [Example 7]	6.79	17.6	–
CNC(=O)c1c(-c2cnc3c(c2)OCCO3)oc2cc(N(C)S(C)(=O)=O)c(-c3ccc4c(n3)-c3cc5c(F)cccc5n3CC4)cc12 [Example 8]	122	580	–
CCc1ccc(-c2oc3cc(N(C)S(C)(=O)=O)c(-c4ccc5c(n4)-c4cc6c(F)cccc6n4CC5)cc3c2C(=O)NC)cn1 [Example 9]	31.2	38.2	–
CNC(=O)c1c(-c2ccc(F)cc2C)oc2cc(N(C)S(C)(=O)=O)c(-c3ccc4c(n3)-c3cc5c(F)cccc5n3CC4)cc12 [Example 10]	10.7	9.44	–
CNC(=O)c1c(-c2ccc(C(C)C)nc2)oc2cc(N(C)S(C)(=O)=O)c(-c3ccc4c(n3)-c3cc5c(F)cccc5n3CC4)cc12 [Example 11]	661	2120	–
CNC(=O)c1c(-c2ccc(F)cc2Cl)oc2cc(N(C)S(C)(=O)=O)c(-c3ccc4c(n3)-c3cc5c(F)cccc5n3CC4)cc12 [Example 12]	10.6	4.59	–
CNC(=O)c1c(-c2ccc(F)cc2C#N)oc2cc(N(C)S(C)(=O)=O)c(-c3ccc4c(n3)-c3cc5c(F)cccc5n3CC4)cc12 [Example 13]	16.5	17.3	–
CNC(=O)c1c(-c2cnc(C)c(F)c2)oc2cc(N(C)S(C)(=O)=O)c(-c3ccc4c(n3)-c3cc5c(F)cccc5n3CC4)cc12 [Example 14]	24.3	26.4	–
CNC(=O)c1c(-c2ccc(F)nc2)oc2cc(N(C)S(C)(=O)=O)c(-c3ccc4c(n3)-c3cc5c(F)cccc5n3CC4)cc12 [Example 15]	5.09	3.41	–
CNC(=O)c1c(C2CC2)oc2cc(N(C)S(C)(=O)=O)c(-c3ccc4c(n3)-c3cc5c(F)cccc5n3CC4)cc12 [Example 16]	14.6	27	–
CNC(=O)c1c(-c2ccnn2C(C)C)oc2cc(N(C)S(C)(=O)=O)c(-c3ccc4c(n3)-c3cc5c(F)cccc5n3CC4)cc12 [Example 17, 5-(11-fluoro-5,6-dihydroindolo[1,2-h][1,7]naphthyridin-2-yl)-2-(1-isopropyl-1H-pyrazol-5-yl)-N-methyl-6-(N-methylmethylsulfonamido)benzofuran-3-carboxamide]	197	373	–
CNC(=O)c1c(-c2cnn(-c3ccccc3)c2)oc2cc(N(C)S(C)(=O)=O)c(-c3ccc4c(n3)-c3cc5c(F)cccc5n3CC4)cc12 [Example 18]	296	5480	–
CNC(=O)c1c(-c2cnn3c2CCC3)oc2cc(N(C)S(C)(=O)=O)c(-c3ccc4c(n3)-c3cc5c(F)cccc5n3CC4)cc12 [Example 19]	52.3	56.9	–
CNC(=O)c1c(-c2cnc(C(C)(C)O)s2)oc2cc(N(C)S(C)(=O)=O)c(-c3ccc4c(n3)-c3cc5c(F)cccc5n3CC4)cc12 [Example 20]	129	680	–
